Experimental data: PubChem BioAssay (NCI)
Values joined by “and” are separate entries in the source; they are usually repeats but may differ in a detail not shown here. Equal entries are not always repeated.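 48-hour exposure; five concentrations; linearly interpolated endpoints. GI50: concentration for 50% inhibition of growth. Definition used: TGI = concentration required for complete inhibition of growth.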

Legend:
Experiment in all cases: NCI tumour cell line growth inhibition, 48 h
[1] = test system: MDA-MB-231 breast
[2] = test system: NCI/ADR-RES ovarian
[3] = test system: SNB-75 CNS
[4] = test system: SNB-19 CNS
[5] = test system: EKVX NSCLC
[6] = test system: HCC-2998 colon
[7] = test system: ACHN renal
[8] = test system: CCRF-CEM leukemia
[9] = test system: SK-MEL-28 melanoma
[10] = test system: SN12C renal

| SMILES | GI50 [1] | TGI [1] | GI50 [2] | TGI [2] | GI50 [3] | TGI [3] | GI50 [4] | TGI [4] | GI50 [5] | TGI [5] | GI50 [6] | TGI [6] | GI50 [7] | TGI [7] | GI50 [8] | TGI [8] | GI50 [9] | TGI [9] | GI50 [10] | TGI [10] |
| --- | --- | --- | --- | --- | --- | --- | --- | --- | --- | --- | --- | --- | --- | --- | --- | --- | --- | --- | --- | --- |
| CN1CCN(Cc2ccc(-c3cc4ncnc(Nc5ccc(OCc6cccc(F)c6)c(Cl)c5)c4s3)o2)CC1 | 4.56 µM | 9.01 µM | 4.32 µM | 9.32 µM | 4.29 µM | 9.11 µM | 4.8 µM | 9.86 µM | 2.95 µM | 8.78 µM | 4.24 µM | 7.99 µM | 3.26 µM | 6.95 µM | 3.81 µM | 9.18 µM | 4.08 µM | 7.61 µM | 3.79 µM | 7.85 µM |
| C=C1C(=O)O[C@@H]2C[C@@H]1CC[C@]1(C)O[C@H]1CC[C@@]1(C)O[C@@H]1CC[C@@]2(C)O | 25.1 µM | 68.4 µM | 20.1 µM | 46.9 µM | – | – | 68.6 µM | > 100 µM | 59.8 µM | > 100 µM | 6.49 µM | 24.4 µM | 25.1 µM | 75.2 µM | 17.5 µM | 49.4 µM | 17.5 µM | 43.1 µM | 22.5 µM | 61.5 µM |
| CCNC(=O)C[C@@H]1N=C(c2ccc(Cl)cc2)c2cc(OC)ccc2-n2c(C)nnc21 | 2.76 µM | > 100 µM | > 56 µM | > 100 µM | 0.034 µM | 1.6 µM | 5.11 µM | > 100 µM | > 100 µM | > 100 µM | 5.77 µM | > 100 µM | 7.4 µM | > 100 µM | 7.44 µM | > 100 µM | 11.2 µM | > 100 µM | 15.5 µM | > 100 µM |
| Cc1[nH]c(=O)[nH]c(=O)c1N(CCF)CCCl | – | 888 µM | 443 µM and 206 µM | 820 µM and 1130 µM and 1090 µM | 268 µM and 592 µM and 493 µM | 617 µM and 1420 µM and 1010 µM | 711 µM and 250 µM | 1160 µM and 2500 µM and 1820 µM | 165 µM and 406 µM and 557 µM | 443 µM and 762 µM and 1200 µM | 220 µM | 606 µM and 668 µM and 751 µM | – | 1220 µM | 96 µM and 48.4 µM | 796 µM and 626 µM and 791 µM | 256 µM and 494 µM | 589 µM and 1140 µM and 711 µM | 159 µM and 120 µM and 312 µM | 480 µM and 641 µM and 1020 µM |
| COC(=O)/C=C/c1cc(O)c2c(c1)C(C(=O)OC)C(c1ccc(O)c(O)c1)O2 (centres undefined) | 0.192 µM and 0.308 µM | 18.2 µM and 47.1 µM | 0.11 µM and 0.0614 µM | > 100 µM | – | > 49.7 µM and 64.2 µM | 0.131 µM and 0.0868 µM | > 100 µM | 0.851 µM and 0.418 µM | 78.5 µM and > 100 µM | 1.53 µM and 0.558 µM | 72.7 µM and > 46.9 µM | 0.183 µM and 0.0676 µM | 43.6 µM and > 82.3 µM | 0.0892 µM | 22.5 µM and > 100 µM | – | 60.8 µM and > 100 µM | 0.614 µM | > 100 µM |
| CC1=C(C)C(=O)c2c(c(C(=O)c3ccccc3)c3nc4ccccc4n3c2C)C1=O | 17.7 µM | 46 µM | > 100 µM | > 100 µM | 15.8 µM | 40.3 µM | 38.1 µM | > 100 µM | 68.2 µM | > 100 µM | > 100 µM | > 100 µM | 37.2 µM | > 100 µM | > 100 µM | > 100 µM | > 100 µM | > 100 µM | > 100 µM | > 100 µM |
| CC(C)(C)[Si](C)(C)OCC1CCC(n2cnc3c(NC(=O)c4ccccc4)ncnc32)O1 (centres undefined) | – | 37.1 µM | – | 33.4 µM | – | 25.6 µM | – | 33.9 µM | – | 32.6 µM | – | 36.2 µM | – | 40.3 µM | – | 47.1 µM | – | 27.9 µM | – | 34 µM |
| O=C(Nc1ccc(Cl)c([N+](=O)[O-])c1)Nc1nc2ccccc2s1 | 3.5 µM | 12.1 µM | 2.86 µM | 11.9 µM | 3.97 µM | 15.4 µM | 4.87 µM | 30.8 µM | 2.59 µM | 10.9 µM | 3.03 µM | 13.1 µM | 3.34 µM | 12.8 µM | 3.88 µM | 20.8 µM | 4.95 µM | 21.3 µM | 3.74 µM | 19 µM |
| COc1ccc(C(=O)Cn2c(C(=O)c3ccc(OC)cc3)nc3ccccc32)cc1 | 9.23 µM | > 100 µM | 0.671 µM | 4.06 µM | 2.16 µM | > 54.3 µM | 4.37 µM | > 100 µM | 18.9 µM | > 100 µM | 5.64 µM | > 100 µM | 6.58 µM | > 100 µM | 1.69 µM | > 42.8 µM | 3 µM | > 100 µM | > 92.9 µM | > 100 µM |
| COc1cc(/C=C(/C)[N+](=O)[O-])ccc1O | 2.14 µM and 2.64 µM | 5.5 µM and 7.44 µM | 3.18 µM and 3.08 µM | 11.8 µM and 10.9 µM | 3.64 µM and 1.91 µM | 15.1 µM and 8.45 µM | 4.55 µM and 5.02 µM | 16.2 µM and 17.5 µM | 6.55 µM and 2.84 µM | 18.7 µM and 14.6 µM | 1.77 µM and 1.68 µM | 3.28 µM and 3.08 µM | 2.38 µM and 1.9 µM | 5.44 µM and 4 µM | 1.85 µM | 4.91 µM | 1.81 µM and 1.87 µM | 3.87 µM and 3.88 µM | 2.2 µM and 2.43 µM | 5.98 µM and 9.43 µM |
| N#CC1=C(N)Oc2cc3c(cc2C1c1cccs1)OCO3 (centres undefined) | 5.41 µM | > 100 µM | 0.232 µM | 0.707 µM | 0.367 µM | 4.74 µM | 1.36 µM | > 100 µM | 1.21 µM | > 100 µM | 0.775 µM | 11.6 µM | 3.63 µM | > 100 µM | 0.404 µM | > 29.8 µM | 1.12 µM | > 100 µM | 0.723 µM | > 100 µM |
| CN(N=O)C(=O)Nc1c[nH]c(=O)[nH]c1=O | – | > 100 µM | – | > 100 µM | – | > 100 µM | – | > 100 µM | – | > 100 µM | – | > 100 µM | – | > 100 µM | – | > 100 µM | – | > 100 µM | – | > 100 µM |
| CCn1c(=O)c(-c2ccn[nH]2)cc2c(C)nc(N)nc21 | 1.45 µM | 12 µM | 1.4 µM | > 100 µM | 0.182 µM | 2.49 µM | 4.57 µM | > 100 µM | 0.691 µM | 11.1 µM | 5.03 µM | > 100 µM | 1.49 µM | > 100 µM | 1.68 µM | > 100 µM | 0.97 µM | 6.13 µM | 1.4 µM | > 100 µM |
